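96-well plates; 48 h exposure; 5 concentrations. Endpoints by linear interpolation between flanking doses. Not reached: highest tested concentration assigned. The concentration for 50% growth inhibition is given as GI50. At the TGI there is no net growth.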
What was measured:
Assay in all cases: NCI tumour cell line growth inhibition, 48 h
786-0 renal = test system: 786-0 renal
A498 renal = test system: A498 renal
A549 NSCLC = test system: A549 NSCLC
ACHN renal = test system: ACHN renal
BT-549 breast = test system: BT-549 breast
CAKI-1 renal = test system: CAKI-1 renal
CCRF-CEM leukemia = test system: CCRF-CEM leukemia
COLO 205 colon = test system: COLO 205 colon
DU-145 prostate = test system: DU-145 prostate
EKVX NSCLC = test system: EKVX NSCLC
HCC-2998 colon = test system: HCC-2998 colon
HCT-116 colon = test system: HCT-116 colon
HCT-15 colon = test system: HCT-15 colon
HL-60(TB) leukemia = test system: HL-60(TB) leukemia
HOP-62 NSCLC = test system: HOP-62 NSCLC
HOP-92 NSCLC = test system: HOP-92 NSCLC
HS 578T breast = test system: HS 578T breast
HT29 colon = test system: HT29 colon
IGROV1 ovarian = test system: IGROV1 ovarian
K-562 leukemia = test system: K-562 leukemia
KM12 colon = test system: KM12 colon
LOX IMVI melanoma = test system: LOX IMVI melanoma
M14 melanoma = test system: M14 melanoma
MALME-3M melanoma = test system: MALME-3M melanoma
MCF7 breast = test system: MCF7 breast
MDA-MB-435 = test system: MDA-MB-435
MDA-MB-468 breast = test system: MDA-MB-468 breast
MOLT-4 leukemia = test system: MOLT-4 leukemia
NCI-H226 lung = test system: NCI-H226 lung
NCI-H23 lung = test system: NCI-H23 lung
NCI-H460 lung = test system: NCI-H460 lung
NCI-H522 lung = test system: NCI-H522 lung
NCI/ADR-RES ovarian = test system: NCI/ADR-RES ovarian
OVCAR-3 ovarian = test system: OVCAR-3 ovarian
OVCAR-4 ovarian = test system: OVCAR-4 ovarian
OVCAR-5 ovarian = test system: OVCAR-5 ovarian
OVCAR-8 ovarian = test system: OVCAR-8 ovarian
PC-3 prostate = test system: PC-3 prostate
RPMI-8226 leukemia = test system: RPMI-8226 leukemia
RXF 393 renal = test system: RXF 393 renal
SF-268 CNS = test system: SF-268 CNS
SF-295 CNS = test system: SF-295 CNS
SF-539 CNS = test system: SF-539 CNS
SK-MEL-2 melanoma = test system: SK-MEL-2 melanoma
SK-MEL-28 melanoma = test system: SK-MEL-28 melanoma
SK-MEL-5 melanoma = test system: SK-MEL-5 melanoma
SK-OV-3 ovarian = test system: SK-OV-3 ovarian
SNB-75 CNS = test system: SNB-75 CNS
SW-620 colon = test system: SW-620 colon
T-47D breast = test system: T-47D breast
TK-10 renal = test system: TK-10 renal
U251 CNS = test system: U251 CNS
UACC-257 melanoma = test system: UACC-257 melanoma
UO-31 renal = test system: UO-31 renal

Q: With `CN(C)c1nc(NCCNS(=O)(=O)c2ccc(C3=Nc4c(N)nc(N)nc4NC(c4ccc(C(F)(F)F)cc4)C3)cc2)nc(Nc2ccc(F)cc2)n1` (stereo not drawn) as the compound, how does the GI50 (786-0 renal) read?
A: 10.1 µM

Q: What about the TGI (786-0 renal) of the same compound?
A: 39.8 µM

Q: What about the GI50 (A498 renal) of the same compound?
A: 22.2 µM

Q: And the TGI (A498 renal)?
A: 77.4 µM

Q: What about the GI50 (A549 NSCLC) of the same compound?
A: 55 µM

Q: And the TGI (A549 NSCLC)?
A: > 86 µM

Q: What about the GI50 (ACHN renal) of the same compound?
A: > 86 µM

Q: What about the TGI (ACHN renal) of the same compound?
A: > 86 µM

Q: What about the GI50 (BT-549 breast) of the same compound?
A: 11.8 µM

Q: And the TGI (BT-549 breast)?
A: 32.6 µM

Q: And the GI50 (CAKI-1 renal)?
A: 36.8 µM

Q: And the TGI (CAKI-1 renal)?
A: > 86 µM

Q: And the GI50 (CCRF-CEM leukemia)?
A: 3.24 µM

Q: And the TGI (CCRF-CEM leukemia)?
A: > 86 µM

Q: And the GI50 (COLO 205 colon)?
A: 9.73 µM

Q: What about the TGI (COLO 205 colon) of the same compound?
A: 21.8 µM

Q: And the GI50 (DU-145 prostate)?
A: 38.5 µM

Q: What about the TGI (DU-145 prostate) of the same compound?
A: > 86 µM

Q: And the GI50 (EKVX NSCLC)?
A: 5.52 µM

Q: What about the TGI (EKVX NSCLC) of the same compound?
A: > 86 µM

Q: And the GI50 (HCC-2998 colon)?
A: 4.72 µM

Q: And the TGI (HCC-2998 colon)?
A: 25.9 µM

Q: And the GI50 (HCT-116 colon)?
A: 5.1 µM

Q: What about the TGI (HCT-116 colon) of the same compound?
A: > 86 µM

Q: What about the GI50 (HCT-15 colon) of the same compound?
A: 55.1 µM

Q: What about the TGI (HCT-15 colon) of the same compound?
A: > 86 µM

Q: And the GI50 (HL-60(TB) leukemia)?
A: 4.07 µM

Q: And the TGI (HL-60(TB) leukemia)?
A: > 86 µM

Q: And the GI50 (HOP-62 NSCLC)?
A: 31.4 µM

Q: And the TGI (HOP-62 NSCLC)?
A: > 86 µM

Q: And the GI50 (HOP-92 NSCLC)?
A: 2.99 µM

Q: What about the TGI (HOP-92 NSCLC) of the same compound?
A: 16.9 µM

Q: And the GI50 (HS 578T breast)?
A: 9.03 µM

Q: And the TGI (HS 578T breast)?
A: > 86 µM

Q: And the GI50 (HT29 colon)?
A: 4.88 µM

Q: And the TGI (HT29 colon)?
A: 18.3 µM

Q: What about the GI50 (IGROV1 ovarian) of the same compound?
A: 11.2 µM

Q: And the TGI (IGROV1 ovarian)?
A: > 86 µM

Q: What about the GI50 (K-562 leukemia) of the same compound?
A: 3.51 µM

Q: What about the TGI (K-562 leukemia) of the same compound?
A: > 86 µM

Q: And the GI50 (KM12 colon)?
A: 6.14 µM

Q: What about the TGI (KM12 colon) of the same compound?
A: > 86 µM

Q: And the GI50 (LOX IMVI melanoma)?
A: 3.14 µM

Q: What about the TGI (LOX IMVI melanoma) of the same compound?
A: 12 µM

Q: And the GI50 (M14 melanoma)?
A: 7.87 µM

Q: And the TGI (M14 melanoma)?
A: > 86 µM

Q: And the GI50 (MALME-3M melanoma)?
A: 11.3 µM

Q: And the TGI (MALME-3M melanoma)?
A: 24.2 µM

Q: What about the GI50 (MCF7 breast) of the same compound?
A: 2.87 µM

Q: And the TGI (MCF7 breast)?
A: 21 µM

Q: And the GI50 (MDA-MB-435)?
A: 9.13 µM

Q: And the TGI (MDA-MB-435)?
A: > 86 µM

Q: And the GI50 (MDA-MB-468 breast)?
A: 2.67 µM

Q: What about the TGI (MDA-MB-468 breast) of the same compound?
A: 11.7 µM

Q: What about the GI50 (MOLT-4 leukemia) of the same compound?
A: 2.74 µM

Q: What about the TGI (MOLT-4 leukemia) of the same compound?
A: > 86 µM

Q: What about the GI50 (NCI-H226 lung) of the same compound?
A: 37.3 µM

Q: What about the TGI (NCI-H226 lung) of the same compound?
A: > 86 µM

Q: What about the GI50 (NCI-H23 lung) of the same compound?
A: 27.7 µM

Q: And the TGI (NCI-H23 lung)?
A: > 86 µM

Q: What about the GI50 (NCI-H460 lung) of the same compound?
A: 5.49 µM

Q: What about the TGI (NCI-H460 lung) of the same compound?
A: > 86 µM

Q: And the GI50 (NCI-H522 lung)?
A: 17.8 µM

Q: What about the TGI (NCI-H522 lung) of the same compound?
A: 44.8 µM

Q: And the GI50 (NCI/ADR-RES ovarian)?
A: > 86 µM

Q: What about the TGI (NCI/ADR-RES ovarian) of the same compound?
A: > 86 µM

Q: What about the GI50 (OVCAR-3 ovarian) of the same compound?
A: 11.9 µM

Q: What about the TGI (OVCAR-3 ovarian) of the same compound?
A: > 86 µM

Q: And the GI50 (OVCAR-4 ovarian)?
A: 25 µM

Q: And the TGI (OVCAR-4 ovarian)?
A: > 86 µM

Q: And the GI50 (OVCAR-5 ovarian)?
A: 19.9 µM

Q: What about the TGI (OVCAR-5 ovarian) of the same compound?
A: > 86 µM

Q: And the GI50 (OVCAR-8 ovarian)?
A: 26.1 µM

Q: And the TGI (OVCAR-8 ovarian)?
A: > 86 µM

Q: What about the GI50 (PC-3 prostate) of the same compound?
A: 4.37 µM

Q: And the TGI (PC-3 prostate)?
A: > 86 µM

Q: And the GI50 (RPMI-8226 leukemia)?
A: 4 µM

Q: What about the TGI (RPMI-8226 leukemia) of the same compound?
A: > 86 µM

Q: What about the GI50 (RXF 393 renal) of the same compound?
A: 2.57 µM

Q: What about the TGI (RXF 393 renal) of the same compound?
A: 18.8 µM

Q: And the GI50 (SF-268 CNS)?
A: 11.2 µM

Q: What about the TGI (SF-268 CNS) of the same compound?
A: > 86 µM

Q: What about the GI50 (SF-295 CNS) of the same compound?
A: 12.9 µM

Q: And the TGI (SF-295 CNS)?
A: > 86 µM

Q: What about the GI50 (SF-539 CNS) of the same compound?
A: 6.22 µM

Q: What about the TGI (SF-539 CNS) of the same compound?
A: 24.7 µM

Q: And the GI50 (SK-MEL-2 melanoma)?
A: 10.8 µM

Q: What about the TGI (SK-MEL-2 melanoma) of the same compound?
A: 24.7 µM

Q: What about the GI50 (SK-MEL-28 melanoma) of the same compound?
A: 15 µM

Q: And the TGI (SK-MEL-28 melanoma)?
A: > 86 µM

Q: What about the GI50 (SK-MEL-5 melanoma) of the same compound?
A: 10.4 µM

Q: What about the TGI (SK-MEL-5 melanoma) of the same compound?
A: 21.3 µM

Q: And the GI50 (SK-OV-3 ovarian)?
A: > 86 µM

Q: What about the TGI (SK-OV-3 ovarian) of the same compound?
A: > 86 µM

Q: What about the GI50 (SNB-75 CNS) of the same compound?
A: 2.13 µM

Q: What about the TGI (SNB-75 CNS) of the same compound?
A: > 86 µM

Q: And the GI50 (SW-620 colon)?
A: 14.3 µM

Q: And the TGI (SW-620 colon)?
A: > 86 µM

Q: And the GI50 (T-47D breast)?
A: 12 µM

Q: What about the TGI (T-47D breast) of the same compound?
A: > 86 µM

Q: And the GI50 (TK-10 renal)?
A: > 86 µM

Q: And the TGI (TK-10 renal)?
A: > 86 µM

Q: And the GI50 (U251 CNS)?
A: 5.52 µM

Q: What about the TGI (U251 CNS) of the same compound?
A: > 86 µM

Q: And the GI50 (UACC-257 melanoma)?
A: 23.3 µM

Q: And the TGI (UACC-257 melanoma)?
A: > 86 µM

Q: And the GI50 (UO-31 renal)?
A: > 86 µM

Q: And the TGI (UO-31 renal)?
A: > 86 µM

— PubChem BioAssay (NCI)
